Experimental findings from a melting point compilation (Tetko et al.) are described below.

Structures are written as SMILES.

Usually melting point stands for the temperature of the solid-liquid transition. Turning to `CC1CCC(C)C(C)C1C` (stereo not drawn), the melting point was -75 °C.

For `O=C(CC(=O)C(F)(F)F)c1ccccc1`, the melting point was 39 °C.

For the compound `COc1ccc(CN)c(F)c1F`, the melting point was found to be 34 °C.

Turning to `O=Cc1csc2ccc(Br)cc12`, the melting point was in the range of 106 to 107 °C.

For `O=C1CCCC2Cc3ccccc3C(=O)C12` (stereo not drawn), the melting point worked out at 79 °C.

For `O=Cc1ccc(OCc2ccc(Cl)c(Cl)c2)cc1`, the melting point fell in the range of 92 to 93 °C.

In turn, `Clc1ccc(-c2csc3nc4ccccc4n23)cc1` displayed a melting point of 200 to 203 °C.

`O=C(OC1CCCCC1)C(=O)OC1CCCCC1` had a melting point of 43.5 °C.

`CC(=O)OCC(=O)C1CCC2C3CCC4CC(O)CCC4(C)C3C(=O)CC12C` (stereo not drawn) registered a melting point of 176 °C.

Consider `Nc1c(F)c(F)c(-c2c(F)c(F)c(F)c(F)c2F)c(F)c1F`, for which the melting point is 146 °C.

With `O=c1oc2cc(O)ccc2s1`, the melting point stood at 160 °C.

Take `Sc1nc2cc3c(cc2[nH]1)OCCO3`: the melting point worked out at 300 °C.

`Sc1nc2cc(Cl)c(Cl)cc2[nH]1`: the melting point amounted to 300 °C.

Take `N#Cc1cnccc1/C=C/c1ccccc1`: the melting point fell in the range of 128 to 130 °C.

`COc1ccc(Br)cc1F` came in with a melting point of 16 °C.

Compound `O=Cc1ccc(-c2ccsc2)cc1` yielded a melting point of 101 to 102 °C.

Regarding `N#Cc1ccc(N)cc1Cl`, the melting point worked out at 118 °C.

Take `[O-][P+](c1ccccc1)(c1ccccc1)C1C2=C(OC3=C1CCc1ccccc13)c1ccccc1CC2`: the melting point was found to be 215 °C.

As for `OC1CCN(c2nccc(C(F)(F)F)n2)CC1`, the melting point is 99 to 100 °C.

`N#Cc1c(Cl)ccc([N+](=O)[O-])c1Cl` displayed a melting point of 108 °C.

For the compound `O=c1ccc2cc([N+](=O)[O-])ccc2o1`, the melting point fell in the range of 190 to 192 °C.

`O=C1c2ccccc2C(=O)N1O` showed a melting point of 233 to 235 °C.

In the case of `NCCC(c1ccccc1)c1ccccc1`, the melting point lay in the range of 29 to 31 °C.

Regarding `CC(=O)Nc1cc([N+](=O)[O-])c(C=Cc2ccccc2)cc1C=Cc1ccccc1`, the melting point was found to be 227 °C.

In turn, `COc1cc(C(=O)OCCCN(C)CCN(C)CCCOC(=O)c2cc(OC)c(OC)c(OC)c2)cc(OC)c1OC` registered a melting point of 76 °C.

Consider `CSc1nc(N=Cc2ccc([N+](=O)[O-])cc2)nn1C`, for which the melting point fell in the range of 194 to 196 °C.

For the compound `O=C(O)c1ccc(C2CCCCC2)cc1`, the melting point amounted to 196 °C.

In the case of `COc1ccc(OC)c(F)c1`, the melting point is 25 °C.

In turn, `COC1(OC)c2ccccc2C(O)(c2ccccc2)c2ccccc21` came in with a melting point of 189 °C.

The compound `CCCCCCCCCCCCCCCCOC(C)=O` yielded a melting point of -18.5 °C.

`Cc1cccc(N(C)C(=S)Oc2ccc3ccccc3c2)c1` gave a melting point of 111 °C.

The compound `O=C(O)c1cc(Cl)nc(Cl)c1` yielded a melting point of 210 to 211 °C.

Compound `O=S(=O)(NC(=S)Nc1ccccc1)c1ccccc1` displayed a melting point of 144 to 145 °C.

In turn, `COc1ccc(-c2nnc3n2NCS3)cc1` gave a melting point of 200 °C.

On to `COc1ccc(C(=O)C=Cc2ccc(-c3ccccc3OC)o2)cc1OC`, for which the melting point was 144 to 145 °C.

Take `CC1CCC2(OC1)OC1CC3C4CCC5CC(O)CCC5(C)C4CCC3(C)C1C2C` (stereo not drawn): the melting point was 206 °C.

With `OCCOc1ccc(OCCO)cc1`, the melting point fell in the range of 104 to 107 °C.

`COc1cc(N)c(Cl)cc1C(=O)O` registered a melting point of 206 to 210 °C.

Take `CC(CN1CCOCC1)C(C(=O)N1CCCC1)(c1ccccc1)c1ccccc1` (stereo not drawn): the melting point was found to be 180 °C.

Consider `Cc1ccc(C(=O)CCCCl)cc1C`, for which the melting point was 46 to 49 °C.

In turn, `Cc1ccc(Cl)c(Nc2ccccc2C(=O)O)c1Cl` showed a melting point of 257 °C.

On to `CCCCNC`, for which the melting point was -75 °C.

For `COc1ccc(Oc2ccc(C(F)(F)F)cc2N)cc1`, the melting point fell in the range of 73 to 75 °C.
